The values below come from ChEMBL document CHEMBL4325829, “Design and Synthesis of Tubulin and Histone Deacetylase Inhibitor Based on iso-Combretastatin A-4” (J Med Chem, 2018).

The structures appear in SMILES notation. Calls of active or inactive are those of the source. The calls are words filed in the database; no cut-off is given here.

For one assay, the system named is U-87 MG. Description: Antiproliferative activity against human U87 cells after 72 hrs by MTS assay. It is filed as functional, U-87MG ATCC. The note with it: Homo sapiens, U-87 MG, 72 h. (Tetrazolium assays rely on reduction of a dye to a coloured formazan, in cell work by metabolically active cells.)
In assay [1] the test system is K-562R. Description: Potency index, ratio of IC50 for TSA to IC50 for test compound for antiproliferative activity against human K562R cells after 72 hrs by MTS assay. It is filed as functional.
The test system of assay [2] is K-562R. In words: Antiproliferative activity against human K562R cells after 72 hrs by MTS assay. It is filed as functional. The note with it: Homo sapiens, K-562R, 72 h.
Assay [3] concerns HT-29. Description: Antiproliferative activity against human HT-29 cells after 72 hrs by MTS assay. It is filed as functional. Particulars: Homo sapiens, HT-29, 72 h.
A short description of assay [4]: Antiproliferative activity against human BL2 cells after 72 hrs by MTS assay. It is filed as functional, cell-based. Particulars: BL2, 72 h.
Assay [5] has as its target Histone deacetylase (Homo sapiens) (UniProt Q13547+O15379+Q9UBN7+Q92769+Q9UQL6+Q8WUI4+Q9BY41+Q96DB2+P56524+Q9UKV0+Q969S8). In words: Inhibition of HDAC in human HT-29 cells assessed as phosphorylated gamma-H2AX levels at 40 nM after 3 days by Western blot analysis relative to control. It is filed as cell-based. For orientation: Immunoblotting shows a protein as a band on a membrane.

Assay [6] has as its target T1, Tubulin (Homo sapiens) (UniProt P68371+Q9H4B7+P0DPH7+P68366+Q13509+Q71U36+P04350+Q3ZCM7+P07437+P68363+Q9BQE3+Q6PEY2+Q13885+Q9BVA1+Q9BUF5). Description: Inhibition of tubulin polymerization in human K562 cells assessed as shrinkage of microtubule spindles at 10 nM after 24 hrs by DAPI-staining based inverted microscopy. It is filed as cell-based.
The species entered for the next assay is Homo sapiens. In words: Induction of cell cycle arrest in human BL2 cells assessed as accumulation at G2/M phase after 24 hrs by propidium iodide-staining based flow cytometry. It is filed as functional. A general note: In flow cytometry, cells or beads pass a laser one at a time.
For assay [7], the target named is Histone deacetylase 1 (Homo sapiens) (UniProt Q13547). In words: Inhibition of human recombinant HDAC1 at 10^-5 M after 15 mins using fluorogenic substrate by fluorimetric assay relative to control.
Assay [8] concerns the target Histone deacetylase 4 (Homo sapiens) (UniProt P56524). Description: Inhibition of human recombinant HDAC4 at 10^-5 M after 30 mins using fluorogenic substrate by fluorimetric assay relative to control.
Assay [9] deals with Histone deacetylase 11 (Homo sapiens) (UniProt Q96DB2). Description: Inhibition of human recombinant HDAC11 at 10^-5 M after 45 mins using fluorogenic substrate by fluorimetric assay relative to control.
Another assay deals with K562. Description: Induction of cell cycle arrest in human K562 cells assessed as accumulation at G2/M phase at 5 to 10 nM after 24 hrs by propidium iodide-staining based flow cytometry. It is filed as functional.
In the next assay the test system is MCF7. Description: Antiproliferative activity against human MCF7 cells after 72 hrs by MTS assay. It is filed as functional. Particulars: Homo sapiens, MCF7, 72 h.
Assay [10] addresses T2, Protein deacetylase HDAC6 (Homo sapiens, UniProt Q9UBN7).
T2 sequence (Q9UBN7 whole entry): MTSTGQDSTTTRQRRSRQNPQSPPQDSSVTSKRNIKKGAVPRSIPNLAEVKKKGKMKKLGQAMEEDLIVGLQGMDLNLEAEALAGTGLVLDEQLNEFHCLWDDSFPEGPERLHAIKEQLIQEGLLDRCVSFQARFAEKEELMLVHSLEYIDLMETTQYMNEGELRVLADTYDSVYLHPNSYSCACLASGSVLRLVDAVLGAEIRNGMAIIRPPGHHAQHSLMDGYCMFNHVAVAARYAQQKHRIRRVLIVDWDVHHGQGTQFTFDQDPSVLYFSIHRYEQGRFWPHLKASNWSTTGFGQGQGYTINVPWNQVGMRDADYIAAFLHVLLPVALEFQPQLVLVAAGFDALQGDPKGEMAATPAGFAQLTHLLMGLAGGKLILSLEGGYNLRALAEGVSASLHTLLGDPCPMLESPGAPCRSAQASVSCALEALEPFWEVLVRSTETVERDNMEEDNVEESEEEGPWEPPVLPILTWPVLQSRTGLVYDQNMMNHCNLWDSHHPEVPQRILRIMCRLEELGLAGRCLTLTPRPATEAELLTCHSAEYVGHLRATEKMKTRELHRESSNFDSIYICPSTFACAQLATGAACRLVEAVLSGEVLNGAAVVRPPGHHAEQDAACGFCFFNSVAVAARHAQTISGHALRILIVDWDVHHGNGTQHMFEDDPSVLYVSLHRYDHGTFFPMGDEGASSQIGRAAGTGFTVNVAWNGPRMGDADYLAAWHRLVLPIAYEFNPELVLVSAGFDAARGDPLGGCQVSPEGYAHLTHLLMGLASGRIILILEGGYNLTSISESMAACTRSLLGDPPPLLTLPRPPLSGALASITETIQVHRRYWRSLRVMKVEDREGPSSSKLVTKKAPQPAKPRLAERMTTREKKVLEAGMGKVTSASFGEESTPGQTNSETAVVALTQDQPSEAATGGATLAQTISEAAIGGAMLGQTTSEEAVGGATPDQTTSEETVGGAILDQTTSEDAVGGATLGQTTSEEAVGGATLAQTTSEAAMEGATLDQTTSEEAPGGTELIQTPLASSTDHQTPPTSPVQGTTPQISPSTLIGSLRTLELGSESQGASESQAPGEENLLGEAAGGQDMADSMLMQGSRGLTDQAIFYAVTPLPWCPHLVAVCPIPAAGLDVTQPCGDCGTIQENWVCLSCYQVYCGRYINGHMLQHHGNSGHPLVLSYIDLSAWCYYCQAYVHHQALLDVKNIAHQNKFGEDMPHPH
Description: (§1) Inhibition of human recombinant HDAC6 after 30 mins using fluorogenic substrate by fluorimetric assay

A short description of assay [11]: Induction of apoptosis in human BL2 cells assessed as early apoptotic cells at 10 nM after 48 hrs by annexin V-FITC/propidium iodide double staining-based flow cytometry (reference value: 8.2%). It is filed as functional.
For assay [12], the target named is T1, Tubulin (Homo sapiens). Description: Inhibition of tubulin polymerization in human K562 cells assessed as disruption of spindle formation at 1 nM after 24 hrs by DAPI-staining based inverted microscopy. It is filed as cell-based.
The target in assay [13] is Histone deacetylase 3 (Homo sapiens) (UniProt O15379). Description: Inhibition of human recombinant HDAC3 at 10^-5 M after 10 mins using fluorogenic substrate by fluorimetric assay relative to control.
Assay [14] concerns the target Polyamine deacetylase HDAC10 (Homo sapiens) (UniProt Q969S8). Description: Inhibition of human recombinant HDAC10 at 10^-5 M after 45 mins using fluorogenic substrate by fluorimetric assay relative to control.
The test system of assay [15] is K-562R. Description: Potency index, ratio of IC50 for isoCA4 to IC50 for test compound for antiproliferative activity against human K562R cells after 72 hrs by MTS assay. It is filed as functional.
For assay [16], the system named is HT-29. In words: Potency index, ratio of IC50 for TSA to IC50 for test compound for antiproliferative activity against human HT-29 cells after 72 hrs by MTS assay. It is filed as functional.
Assay [17] has as its target T2, Protein deacetylase HDAC6. This is another data set of the same source.
Description: as §1

Chain of Histone deacetylase 11 (Homo sapiens) (Q96DB2 whole entry): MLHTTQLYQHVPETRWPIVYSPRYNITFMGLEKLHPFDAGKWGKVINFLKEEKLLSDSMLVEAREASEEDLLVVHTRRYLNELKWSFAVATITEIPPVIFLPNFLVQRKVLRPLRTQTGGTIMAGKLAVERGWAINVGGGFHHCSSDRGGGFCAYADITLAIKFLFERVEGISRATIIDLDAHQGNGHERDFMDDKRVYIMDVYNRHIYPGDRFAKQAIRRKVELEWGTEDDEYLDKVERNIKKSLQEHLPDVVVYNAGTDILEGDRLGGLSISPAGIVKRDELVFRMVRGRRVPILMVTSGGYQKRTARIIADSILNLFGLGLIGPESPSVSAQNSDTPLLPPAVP
Chain of Histone deacetylase 4 (Homo sapiens) (P56524 whole entry): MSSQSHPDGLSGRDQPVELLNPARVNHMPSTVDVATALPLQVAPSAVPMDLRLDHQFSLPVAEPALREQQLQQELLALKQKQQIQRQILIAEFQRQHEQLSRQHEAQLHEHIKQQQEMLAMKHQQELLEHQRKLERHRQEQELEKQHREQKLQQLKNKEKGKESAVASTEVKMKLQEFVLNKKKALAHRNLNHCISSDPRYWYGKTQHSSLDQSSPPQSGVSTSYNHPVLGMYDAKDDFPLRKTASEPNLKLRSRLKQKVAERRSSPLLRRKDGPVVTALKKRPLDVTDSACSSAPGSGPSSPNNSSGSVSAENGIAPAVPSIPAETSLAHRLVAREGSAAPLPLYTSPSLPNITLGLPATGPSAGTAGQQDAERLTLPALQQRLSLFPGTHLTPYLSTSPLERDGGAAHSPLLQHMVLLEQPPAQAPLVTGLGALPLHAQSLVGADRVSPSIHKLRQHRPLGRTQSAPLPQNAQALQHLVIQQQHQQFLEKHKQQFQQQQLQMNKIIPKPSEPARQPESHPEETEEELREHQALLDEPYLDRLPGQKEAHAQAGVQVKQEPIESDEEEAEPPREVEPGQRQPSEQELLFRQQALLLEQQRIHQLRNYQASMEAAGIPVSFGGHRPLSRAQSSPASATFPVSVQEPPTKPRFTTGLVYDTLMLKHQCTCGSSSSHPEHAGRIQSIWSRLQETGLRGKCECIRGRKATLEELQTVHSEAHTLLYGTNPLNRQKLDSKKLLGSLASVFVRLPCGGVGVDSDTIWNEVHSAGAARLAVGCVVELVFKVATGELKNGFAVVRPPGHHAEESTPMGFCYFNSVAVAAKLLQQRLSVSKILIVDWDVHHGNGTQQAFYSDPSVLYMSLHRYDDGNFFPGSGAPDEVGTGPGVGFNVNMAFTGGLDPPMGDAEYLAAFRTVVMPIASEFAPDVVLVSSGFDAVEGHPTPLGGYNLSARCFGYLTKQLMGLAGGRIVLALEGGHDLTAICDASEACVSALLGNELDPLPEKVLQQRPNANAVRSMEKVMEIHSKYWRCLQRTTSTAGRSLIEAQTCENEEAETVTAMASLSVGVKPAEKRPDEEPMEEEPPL
Chain of Histone deacetylase 3 (Homo sapiens) (O15379 whole entry): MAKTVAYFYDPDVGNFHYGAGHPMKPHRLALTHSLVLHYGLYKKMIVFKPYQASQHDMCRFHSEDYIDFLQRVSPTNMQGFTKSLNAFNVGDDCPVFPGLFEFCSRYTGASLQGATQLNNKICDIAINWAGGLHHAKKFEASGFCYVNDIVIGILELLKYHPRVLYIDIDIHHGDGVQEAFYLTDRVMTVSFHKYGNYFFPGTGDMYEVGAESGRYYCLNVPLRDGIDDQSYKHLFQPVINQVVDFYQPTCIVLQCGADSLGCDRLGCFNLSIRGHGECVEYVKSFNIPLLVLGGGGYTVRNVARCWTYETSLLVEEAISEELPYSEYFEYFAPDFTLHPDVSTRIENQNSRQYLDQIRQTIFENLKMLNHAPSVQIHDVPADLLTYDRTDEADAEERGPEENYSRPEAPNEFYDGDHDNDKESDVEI
Chain of Histone deacetylase 1 (Homo sapiens) (Q13547 whole entry): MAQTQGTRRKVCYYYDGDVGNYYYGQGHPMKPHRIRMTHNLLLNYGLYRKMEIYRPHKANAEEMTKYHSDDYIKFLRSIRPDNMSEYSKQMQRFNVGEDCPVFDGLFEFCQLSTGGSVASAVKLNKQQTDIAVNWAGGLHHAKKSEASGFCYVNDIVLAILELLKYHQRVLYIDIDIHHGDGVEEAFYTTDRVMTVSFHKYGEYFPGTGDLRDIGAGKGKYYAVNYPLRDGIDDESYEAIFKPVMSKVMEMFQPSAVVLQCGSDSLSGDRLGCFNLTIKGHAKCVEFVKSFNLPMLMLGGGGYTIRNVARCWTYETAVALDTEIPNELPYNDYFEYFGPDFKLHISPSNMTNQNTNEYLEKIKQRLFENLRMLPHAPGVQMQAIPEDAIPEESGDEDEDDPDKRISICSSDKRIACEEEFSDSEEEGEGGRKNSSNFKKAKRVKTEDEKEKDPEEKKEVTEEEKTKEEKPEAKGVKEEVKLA
Chain of Polyamine deacetylase HDAC10 (Homo sapiens) (Q969S8 whole entry): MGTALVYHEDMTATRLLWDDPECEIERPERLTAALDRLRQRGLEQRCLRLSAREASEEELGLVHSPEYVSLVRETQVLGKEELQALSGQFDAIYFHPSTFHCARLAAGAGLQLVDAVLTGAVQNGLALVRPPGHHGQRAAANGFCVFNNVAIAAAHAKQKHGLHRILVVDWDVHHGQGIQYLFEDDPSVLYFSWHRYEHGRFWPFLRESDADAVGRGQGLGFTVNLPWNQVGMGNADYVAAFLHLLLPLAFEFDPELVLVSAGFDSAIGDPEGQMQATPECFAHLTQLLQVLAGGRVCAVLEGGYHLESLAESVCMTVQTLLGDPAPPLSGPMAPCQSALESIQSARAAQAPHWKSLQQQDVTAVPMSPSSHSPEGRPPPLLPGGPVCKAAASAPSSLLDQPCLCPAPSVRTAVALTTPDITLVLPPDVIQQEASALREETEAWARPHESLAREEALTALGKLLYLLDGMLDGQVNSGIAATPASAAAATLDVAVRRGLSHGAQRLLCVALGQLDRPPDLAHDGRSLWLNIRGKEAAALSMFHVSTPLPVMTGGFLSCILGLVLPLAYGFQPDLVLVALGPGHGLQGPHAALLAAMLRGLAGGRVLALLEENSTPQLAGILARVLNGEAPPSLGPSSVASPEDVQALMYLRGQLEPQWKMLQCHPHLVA

As a reminder, the GI50 is the concentration giving 50% growth inhibition. High values mean less potent growth inhibition, low ones more potent growth inhibition. The term IC50 denotes the concentration at which inhibition is half-maximal. As a reminder, the inhibition is the share of the control response that was lost under treatment. `C=C(c1ccc(OC)c(/C=C/C(=O)NO)c1)c1cc(OC)c(OC)c(OC)c1`: the GI50 with U-87 MG was 1.6 nM; in the assay on K-562R [2] it was 1.4 nM; in the assay on HT-29 [3], 2.04 nM; in the assay with MCF7 it was 2 nM. In addition, the “Ratio IC50” value came out at 60 with K-562R [1], 2 in the assay on K-562R [15] and 17 in the assay with HT-29 [16]. Moreover, the IC50 in assay [4] amounted to 10 nM; in assay [10], 15000 nM. In assay [5], the fold change (FC) came to 3.2. Further, the outcome at Tubulin (Homo sapiens) [6], in the assay listed under Homo sapiens, in the assay on K562 and on Tubulin (Homo sapiens) [12] was Active. Further, the inhibition in [7] is below 50%; in assay [8], below 50%; in [9], 60%; in assay [13], below 50%; in [14] it was below 50%. The Activity in [11] is 82.1%.
In the case of `C=C(c1ccc(OC)c(O)c1)c1cc(OC)c(OC)c(OC)c1`, the GI50 is 8 nM in the assay with U-87 MG, 2.2 nM with K-562R [2], 276 nM in the assay on HT-29 [3] and 8 nM in the assay on MCF7. Further, the inhibition result in assay [7], in assay [8], in assay [9], in assay [13] and in assay [14] was “inactive” in each case. Besides, the Activity in assay [11] is given as 81.7%. Moreover, the IC50 entry in assay [17] is “Not Active”.
